{"source": "PubChem BioAssay AID792", "about": "(PCMD, 2007)", "molecular_target": "S. cerevisiae eIF2B mutant, luciferase reporter luminescence", "assay": "eIF2B reporter inhibitors in yeast strains, dose response, S. cerevisiae, mutant, wild-type, luminescence, growth (AID 792)", "key": {"[1]": {"conditions": "measured here: mutant yeast growth"}}, "note": "pIC50: −log10 of the molar value. Inconclusive results are not listed. Activity calls are given as the source filed them. No rule for the calls is given here."}
{"molecule": "CCOC(=O)CSc1ccc(-c2nc3cc(C)c(C)cc3[nH]2)cn1", "values": [{"measurement": "IC50", "result": "> 100 µM (inactive)"}, {"measurement": "pIC50", "setting": "[1]", "result": "< 4.00"}]}
{"molecule": "CCN1CCN(c2cc(-c3ccccc3)nc3cc(-c4cccc(F)c4)nn23)CC1", "values": [{"measurement": "IC50", "result": "inactive"}, {"measurement": "pIC50", "setting": "S. cerevisiae wild-type, luminescence", "result": 5.16}, {"measurement": "pIC50", "setting": "[1]", "result": 5.05}]}
{"molecule": "CC1Cc2ccccc2N1C(=O)Cn1c(=O)cc(O)c2ccccc21", "note": "(stereo not given)", "values": [{"measurement": "IC50", "result": "> 100 µM (inactive)"}, {"measurement": "pIC50", "setting": "[1]", "result": "< 4.00"}]}
{"molecule": "Nn1c(CSc2nc3ccccc3o2)nnc1CSc1nc2ccccc2o1", "values": [{"measurement": "IC50", "result": "> 100 µM (inactive)"}, {"measurement": "pIC50", "setting": "[1]", "result": "< 4.00"}]}
{"molecule": "COC(=O)c1ccc(NS(=O)(=O)N(C)C)cc1", "values": [{"measurement": "IC50", "result": "> 100 µM (inactive)"}, {"measurement": "pIC50", "setting": "[1]", "result": "< 4.00"}]}
{"molecule": "O=C(CCN1CCN(C(=O)c2ccco2)CC1)Nc1ccc(F)cc1", "values": [{"measurement": "IC50", "result": "> 100 µM (inactive)"}, {"measurement": "pIC50", "setting": "[1]", "result": "< 4.00"}]}
{"molecule": "C=CCn1c(SCC(=O)Nc2cc(C)cc(C)c2)nnc1-c1cnccn1", "values": [{"measurement": "IC50", "result": "> 100 µM (inactive)"}, {"measurement": "pIC50", "setting": "[1]", "result": "< 4.00"}]}
{"molecule": "Cc1nn(-c2ccccc2)c(Cl)c1/C=N/Nc1ccc(S(=O)(=O)Nc2ccccc2C(=O)O)cc1[N+](=O)[O-]", "values": [{"measurement": "IC50", "result": "> 100 µM (inactive)"}, {"measurement": "pIC50", "setting": "[1]", "result": "< 4.00"}]}
{"molecule": "CCCOCC1CC2(CC(C)(c3csc(N)n3)OC2=O)C(=O)O1", "note": "(stereo not given)", "values": [{"measurement": "IC50", "result": "> 100 µM (inactive)"}, {"measurement": "pIC50", "setting": "[1]", "result": "< 4.00"}]}
{"molecule": "CN(Cc1c(F)cccc1Cl)c1ccc(S(=O)(=O)N2CCOCC2)cn1", "values": [{"measurement": "IC50", "result": "> 100 µM (inactive)"}, {"measurement": "pIC50", "setting": "[1]", "result": "< 4.00"}]}
{"molecule": "CN1C(=O)c2ccccc2Sc2ccc(C(=O)N3CCC4(CC3)OCCO4)cc21", "values": [{"measurement": "IC50", "result": "> 100 µM (inactive)"}, {"measurement": "pIC50", "setting": "[1]", "result": "< 4.00"}]}
{"molecule": "Cc1cccc(N2C(=O)C3C4C=CC(C4)C3C2=O)c1", "note": "(stereo not given)", "values": [{"measurement": "IC50", "result": "> 100 µM (inactive)"}, {"measurement": "pIC50", "setting": "[1]", "result": "< 4.00"}]}
{"molecule": "COc1ccc(S(=O)(=O)CCC(=O)N2c3ccccc3CC2C)cc1", "note": "(stereo not given)", "values": [{"measurement": "IC50", "result": "> 100 µM (inactive)"}, {"measurement": "pIC50", "setting": "[1]", "result": "< 4.00"}]}
{"molecule": "Oc1ccccc1C1=Nc2ncnn2C(c2ccc(F)cc2)C1", "note": "(stereo not given)", "values": [{"measurement": "IC50", "result": "> 100 µM (inactive)"}, {"measurement": "pIC50", "setting": "[1]", "result": "< 4.00"}]}
{"molecule": "O=C(Nc1cccnc1)c1ccccc1Oc1ccccc1", "values": [{"measurement": "IC50", "result": "> 100 µM (inactive)"}, {"measurement": "pIC50", "setting": "[1]", "result": "< 4.00"}]}
{"molecule": "CC(C)CNC(=O)c1cc2nc(C3CC3)cc(C(F)(F)F)n2n1", "values": [{"measurement": "IC50", "result": "> 100 µM (inactive)"}, {"measurement": "pIC50", "setting": "[1]", "result": "< 4.00"}]}
{"molecule": "O=C(O)c1cc2c(ccc3ccccc32)[nH]1", "values": [{"measurement": "IC50", "result": "> 100 µM (inactive)"}, {"measurement": "pIC50", "setting": "[1]", "result": "< 4.00"}]}
{"molecule": "COc1ccc(NC(=O)c2ccco2)cc1NC(=O)c1ccc(C)cc1", "values": [{"measurement": "IC50", "result": "> 100 µM (inactive)"}, {"measurement": "pIC50", "setting": "[1]", "result": "< 4.00"}]}
{"molecule": "O=C(Nc1ccc(Cl)cn1)c1ccccc1F", "values": [{"measurement": "IC50", "result": "> 100 µM (inactive)"}, {"measurement": "pIC50", "setting": "[1]", "result": "< 4.00"}]}
{"molecule": "O=c1/c(=C/c2ccc(CNS(=O)(=O)c3ccccc3)o2)sc2n1CCN=2", "values": [{"measurement": "IC50", "result": "> 100 µM (inactive)"}, {"measurement": "pIC50", "setting": "[1]", "result": "< 4.00"}]}
{"molecule": "Cc1[nH]c(=O)c(C#N)c2c1CSC(C)(C)C2", "values": [{"measurement": "IC50", "result": "> 100 µM (inactive)"}, {"measurement": "pIC50", "setting": "[1]", "result": "< 4.00"}]}
{"molecule": "Cn1c(SCc2ccc(F)cc2)nnc1-c1cccs1", "values": [{"measurement": "IC50", "result": "> 100 µM (inactive)"}, {"measurement": "pIC50", "setting": "[1]", "result": "< 4.00"}]}
{"molecule": "Nc1cc2c(cc1C(=O)c1ccccc1)OCCO2", "values": [{"measurement": "IC50", "result": "> 100 µM (inactive)"}, {"measurement": "pIC50", "setting": "[1]", "result": "< 4.00"}]}
{"molecule": "O=C(CSc1nc(-c2ccco2)cc(C(F)(F)F)n1)Nc1ccccc1C(F)(F)F", "values": [{"measurement": "IC50", "result": "> 100 µM (inactive)"}, {"measurement": "pIC50", "setting": "[1]", "result": "< 4.00"}]}
{"molecule": "Cc1c(C(=O)N2CCN(c3ccccc3F)CC2)sc2nc(-c3ccccc3)cn12", "values": [{"measurement": "IC50", "result": "> 100 µM (inactive)"}, {"measurement": "pIC50", "setting": "[1]", "result": "< 4.00"}]}
{"molecule": "COC(=O)C(NC(=O)c1ccco1)(Nc1nc(C)cs1)C(F)(F)F", "note": "(stereo not given)", "values": [{"measurement": "IC50", "result": "> 100 µM (inactive)"}, {"measurement": "pIC50", "setting": "[1]", "result": "< 4.00"}]}
{"molecule": "Cc1cccc(-n2c(SCC(=O)Nc3nonc3C)nnc2-c2ccoc2C)c1", "values": [{"measurement": "IC50", "result": "> 100 µM (inactive)"}, {"measurement": "pIC50", "setting": "[1]", "result": "< 4.00"}]}
{"molecule": "Cc1cc(C)c(NC(=O)CSc2nnc(Cc3cccn3C)n2-c2ccc(F)cc2)c(C)c1", "values": [{"measurement": "IC50", "result": "> 100 µM (inactive)"}, {"measurement": "pIC50", "setting": "[1]", "result": "< 4.00"}]}
{"molecule": "CN(C)CCN1C(=O)C(O)=C(C(=O)c2ccco2)C1c1ccccc1F", "note": "(stereo not given)", "values": [{"measurement": "IC50", "result": "> 100 µM (inactive)"}, {"measurement": "pIC50", "setting": "[1]", "result": "< 4.00"}]}
{"molecule": "CC1(C)CC(=O)C=C(NCCCNC2CCCCC2)C1", "values": [{"measurement": "IC50", "result": "> 100 µM (inactive)"}, {"measurement": "pIC50", "setting": "[1]", "result": "< 4.00"}]}
{"molecule": "COc1ccccc1-n1cnnc1SCC(=O)c1cc(C)n(Cc2cccs2)c1C", "values": [{"measurement": "IC50", "result": "> 100 µM (inactive)"}, {"measurement": "pIC50", "setting": "[1]", "result": "< 4.00"}]}
{"molecule": "O=C(c1ccco1)N1CCN(C(=O)c2ccccc2Oc2ccccc2)CC1", "values": [{"measurement": "IC50", "result": "> 100 µM (inactive)"}, {"measurement": "pIC50", "setting": "[1]", "result": "< 4.00"}]}
